Reference: patent publication US6706740B2, “Fungicidal heterocyclic aromatic amides and their compositions, methods of use and preparation” (Dow AgroSciences LLC, priority 1999, dated 2004)

System: Ustilago maydis (USTIMA)
Assay: microbe, parasite or virus in culture
Format: cell-based
Settings: Mycosarcoma maydis, read-out: USTIMA in vitro Growth Inhibition

Question: For COc1ccnc(C(=O)Nc2cccc(Oc3ccc(C)cc3)c2)c1O [Compound 414], which inhibition at 25 ppm is on record?
Answer: < 80%

Question: For COc1ccnc(C(=O)NC2CC(C)(C)C=CC=C2C)c1O (centres unmarked) [Compound 278], which inhibition at 25 ppm is on record?
Answer: < 80%

Question: Which inhibition at 25 ppm does the source give for COc1ccnc(C(=O)NC2CC(C)(C)C(Cl)C(Cl)[C@H](C)[C@H]2C)c1O (some centres unmarked) [Compound 281] here?
Answer: < 80%

Question: For COc1ccnc(C(=O)NC(COC(=O)C(Cc2ccccc2)C(C)OC(=O)c2ccccc2)C(=O)OC(C)C)c1O (centres unmarked) [Compound 356], which inhibition at 25 ppm is on record?
Answer: < 80%

System: Rhizoctonia solani (RHIZSO)
Assay: microbe, parasite or virus in culture
Format: cell-based
Settings: Rhizoctonia solani, read-out: RHIZSO in vitro Growth Inhibition

Question: COc1ccnc(C(=O)Nc2cccc(Oc3ccc(C)cc3)c2)c1O [Compound 414] was tested. Which inhibition at 25 ppm did it give?
Answer: < 80%

Question: How did the inhibition at 25 ppm turn out when COc1ccnc(C(=O)NC2CC(C)(C)C=CC=C2C)c1O (centres unmarked) [Compound 278] was run?
Answer: < 80%

Question: COc1ccnc(C(=O)NC2CC(C)(C)C(Cl)C(Cl)[C@H](C)[C@H]2C)c1O (some centres unmarked) [Compound 281] was tested. Which inhibition at 25 ppm did it give?
Answer: < 80%

Question: For COc1ccnc(C(=O)NC(COC(=O)C(Cc2ccccc2)C(C)OC(=O)c2ccccc2)C(=O)OC(C)C)c1O (centres unmarked) [Compound 356], which inhibition at 25 ppm is on record?
Answer: < 80%

System: Magnaporthe grisea (Pyricularia oryzae—PYRIOR)
Assay: microbe, parasite or virus in culture
Format: cell-based
Settings: Pyricularia oryzae, read-out: PYRIOR in vitro Growth Inhibition

Question: How did the inhibition at 25 ppm turn out when COc1ccnc(C(=O)Nc2cccc(Oc3ccc(C)cc3)c2)c1O [Compound 414] was run?
Answer: > 80%

Question: How did the inhibition at 25 ppm turn out when COc1ccnc(C(=O)NC2CC(C)(C)C=CC=C2C)c1O (centres unmarked) [Compound 278] was run?
Answer: < 80%

Question: With COc1ccnc(C(=O)NC2CC(C)(C)C(Cl)C(Cl)[C@H](C)[C@H]2C)c1O (some centres unmarked) [Compound 281] as the compound, how does the inhibition at 25 ppm read?
Answer: > 80%

Question: COc1ccnc(C(=O)NC(COC(=O)C(Cc2ccccc2)C(C)OC(=O)c2ccccc2)C(=O)OC(C)C)c1O (centres unmarked) [Compound 356] was tested. Which inhibition at 25 ppm did it give?
Answer: < 80%

System: Puccinia recondita—PUCCRT
Assay: Brown Rust of Wheat, in vivo whole plant, 24 Hour Protectant
Settings: Puccinia; 100 ppm spray, 24 hour protectant, wheat; control of fungal infection vs untreated plants; read-out: PUCCRT in vivo 1 Day Protectant

Question: Which pest or weed control at 100 ppm does the source give for COc1ccnc(C(=O)NC2CC(C)(C)C=CC=C2C)c1O (centres unmarked) [Compound 278] here?
Answer: 25 to 74%

Question: Which pest or weed control at 100 ppm does the source give for COc1ccnc(C(=O)NC2CC(C)(C)C(Cl)C(Cl)[C@H](C)[C@H]2C)c1O (some centres unmarked) [Compound 281] here?
Answer: 25 to 74%

Same assay, conditions: Puccinia; 100 ppm spray, wheat, 24 hour protectant; control of fungal infection vs untreated plants; read-out: PUCCRT in vivo 1 Day Protectant

Question: For COc1ccnc(C(=O)Nc2cccc(Oc3ccc(C)cc3)c2)c1O [Compound 414], which pest or weed control at 100 ppm is on record?
Answer: 25 to 74%

Question: For COc1ccnc(C(=O)NC(COC(=O)C(Cc2ccccc2)C(C)OC(=O)c2ccccc2)C(=O)OC(C)C)c1O (centres unmarked) [Compound 356], which pest or weed control at 100 ppm is on record?
Answer: 25 to 74%

System: Phytophthora infestans (PHYTIN)
Assay: microbe, parasite or virus in culture
Format: cell-based
Settings: Phytophthora infestans, read-out: PHYTIN in vitro Growth Inhibition

Question: With COc1ccnc(C(=O)Nc2cccc(Oc3ccc(C)cc3)c2)c1O [Compound 414] as the compound, how does the inhibition at 25 ppm read?
Answer: < 80%

Question: With COc1ccnc(C(=O)NC2CC(C)(C)C=CC=C2C)c1O (centres unmarked) [Compound 278] as the compound, how does the inhibition at 25 ppm read?
Answer: < 80%

Question: COc1ccnc(C(=O)NC2CC(C)(C)C(Cl)C(Cl)[C@H](C)[C@H]2C)c1O (some centres unmarked) [Compound 281] was tested. Which inhibition at 25 ppm did it give?
Answer: > 80%

Question: With COc1ccnc(C(=O)NC(COC(=O)C(Cc2ccccc2)C(C)OC(=O)c2ccccc2)C(=O)OC(C)C)c1O (centres unmarked) [Compound 356] as the compound, how does the inhibition at 25 ppm read?
Answer: < 80%

System: Leptosphaeria nodorum—LEPTNO
Assay: Glume Blotch of Wheat, in vivo whole plant, 24 Hour Protectant
Settings: Leptosphaeria; 100 ppm spray, 24 hour protectant, wheat; control of fungal infection vs untreated plants; read-out: LEPTNO in vivo 1 Day Protectant

Question: Which pest or weed control at 100 ppm does the source give for COc1ccnc(C(=O)NC2CC(C)(C)C=CC=C2C)c1O (centres unmarked) [Compound 278] here?
Answer: 25 to 74%

Question: COc1ccnc(C(=O)NC2CC(C)(C)C(Cl)C(Cl)[C@H](C)[C@H]2C)c1O (some centres unmarked) [Compound 281] was tested. Which pest or weed control at 100 ppm did it give?
Answer: 25 to 74%

Same assay, conditions: Leptosphaeria; 100 ppm spray, wheat, 24 hour protectant; control of fungal infection vs untreated plants; read-out: LEPTNO in vivo 1 Day Protectant

Question: COc1ccnc(C(=O)Nc2cccc(Oc3ccc(C)cc3)c2)c1O [Compound 414] was tested. Which pest or weed control at 100 ppm did it give?
Answer: < 25%

Question: COc1ccnc(C(=O)NC(COC(=O)C(Cc2ccccc2)C(C)OC(=O)c2ccccc2)C(=O)OC(C)C)c1O (centres unmarked) [Compound 356] was tested. Which pest or weed control at 100 ppm did it give?
Answer: 25 to 74%

System: Stagonospora nodorum (Leptosphaeria nodorum—LEPTNO)
Assay: In vitro fungal growth inhibition, Stagonospora nodorum (LEPTNO)
Format: cell-based
Settings: Leptosphaeria; 25 ppm in growth medium; read-out: LEPTNO in vitro Growth Inhibition

Question: Which inhibition at 25 ppm does the source give for COc1ccnc(C(=O)Nc2cccc(Oc3ccc(C)cc3)c2)c1O [Compound 414] here?
Answer: > 80%

Question: How did the inhibition at 25 ppm turn out when COc1ccnc(C(=O)NC2CC(C)(C)C=CC=C2C)c1O (centres unmarked) [Compound 278] was run?
Answer: < 80%

Question: Which inhibition at 25 ppm does the source give for COc1ccnc(C(=O)NC2CC(C)(C)C(Cl)C(Cl)[C@H](C)[C@H]2C)c1O (some centres unmarked) [Compound 281] here?
Answer: < 80%

Question: How did the inhibition at 25 ppm turn out when COc1ccnc(C(=O)NC(COC(=O)C(Cc2ccccc2)C(C)OC(=O)c2ccccc2)C(=O)OC(C)C)c1O (centres unmarked) [Compound 356] was run?
Answer: < 80%

System: Phytophthora infestans—PHYTIN
Assay: whole plant or invertebrate
Format: in vivo
Settings: Phytophthora, in Solanum lycopersicum, 24 h, read-out: PHYTIN in vivo 1 Day Protectant

Question: Which pest or weed control at 100 ppm does the source give for COc1ccnc(C(=O)Nc2cccc(Oc3ccc(C)cc3)c2)c1O [Compound 414] here?
Answer: 25 to 74%

Question: How did the pest or weed control at 100 ppm turn out when COc1ccnc(C(=O)NC2CC(C)(C)C=CC=C2C)c1O (centres unmarked) [Compound 278] was run?
Answer: < 25%

Question: With COc1ccnc(C(=O)NC2CC(C)(C)C(Cl)C(Cl)[C@H](C)[C@H]2C)c1O (some centres unmarked) [Compound 281] as the compound, how does the pest or weed control at 100 ppm read?
Answer: 25 to 74%

Question: For COc1ccnc(C(=O)NC(COC(=O)C(Cc2ccccc2)C(C)OC(=O)c2ccccc2)C(=O)OC(C)C)c1O (centres unmarked) [Compound 356], which pest or weed control at 100 ppm is on record?
Answer: < 25%

System: Mycosphaerella graminicola (Septoria tritici—SEPTTR)
Assay: In vitro fungal growth inhibition, Mycosphaerella graminicola (SEPTTR)
Format: cell-based
Settings: Zymoseptoria tritici; 25 ppm in growth medium; read-out: SEPTTR in vitro Growth Inhibition

Question: For COc1ccnc(C(=O)Nc2cccc(Oc3ccc(C)cc3)c2)c1O [Compound 414], which inhibition at 25 ppm is on record?
Answer: > 80%

Question: For COc1ccnc(C(=O)NC2CC(C)(C)C=CC=C2C)c1O (centres unmarked) [Compound 278], which inhibition at 25 ppm is on record?
Answer: < 80%

Question: COc1ccnc(C(=O)NC2CC(C)(C)C(Cl)C(Cl)[C@H](C)[C@H]2C)c1O (some centres unmarked) [Compound 281] was tested. Which inhibition at 25 ppm did it give?
Answer: < 80%

Question: How did the inhibition at 25 ppm turn out when COc1ccnc(C(=O)NC(COC(=O)C(Cc2ccccc2)C(C)OC(=O)c2ccccc2)C(=O)OC(C)C)c1O (centres unmarked) [Compound 356] was run?
Answer: < 80%

System: Erysiphe graminis—ERYSGT
Assay: Powdery Mildew of Wheat, in vivo whole plant, 24 Hour Protectant
Settings: Erysiphe; 100 ppm spray, 24 hour protectant, wheat; control of fungal infection vs untreated plants; read-out: ERYSGT in vivo 1 Day Protectant

Question: With COc1ccnc(C(=O)NC2CC(C)(C)C=CC=C2C)c1O (centres unmarked) [Compound 278] as the compound, how does the pest or weed control at 100 ppm read?
Answer: < 25%

Question: Which pest or weed control at 100 ppm does the source give for COc1ccnc(C(=O)NC2CC(C)(C)C(Cl)C(Cl)[C@H](C)[C@H]2C)c1O (some centres unmarked) [Compound 281] here?
Answer: 25 to 74%

Same assay, conditions: Erysiphe; 100 ppm spray, wheat, 24 hour protectant; control of fungal infection vs untreated plants; read-out: ERYSGT in vivo 1 Day Protectant

Question: COc1ccnc(C(=O)Nc2cccc(Oc3ccc(C)cc3)c2)c1O [Compound 414] was tested. Which pest or weed control at 100 ppm did it give?
Answer: < 25%

Question: For COc1ccnc(C(=O)NC(COC(=O)C(Cc2ccccc2)C(C)OC(=O)c2ccccc2)C(=O)OC(C)C)c1O (centres unmarked) [Compound 356], which pest or weed control at 100 ppm is on record?
Answer: < 25%

System: Septoria tritici—SEPTTR
Assay: Leaf Blotch of Wheat, in vivo whole plant, 24 Hour Protectant
Settings: Zymoseptoria tritici, 24 h, 100 ppm spray, 24 hour protectant, wheat; control of fungal infection vs untreated plants; read-out: SEPTTR in vivo 1 Day Protectant

Question: With COc1ccnc(C(=O)NC2CC(C)(C)C=CC=C2C)c1O (centres unmarked) [Compound 278] as the compound, how does the pest or weed control at 100 ppm read?
Answer: 25 to 74%

Question: COc1ccnc(C(=O)NC2CC(C)(C)C(Cl)C(Cl)[C@H](C)[C@H]2C)c1O (some centres unmarked) [Compound 281] was tested. Which pest or weed control at 100 ppm did it give?
Answer: 25 to 74%

Same assay, conditions: Zymoseptoria tritici, 24 h, 100 ppm spray, wheat, 24 hour protectant; control of fungal infection vs untreated plants; read-out: SEPTTR in vivo 1 Day Protectant

Question: For COc1ccnc(C(=O)Nc2cccc(Oc3ccc(C)cc3)c2)c1O [Compound 414], which pest or weed control at 100 ppm is on record?
Answer: < 25%

Question: How did the pest or weed control at 100 ppm turn out when COc1ccnc(C(=O)NC(COC(=O)C(Cc2ccccc2)C(C)OC(=O)c2ccccc2)C(=O)OC(C)C)c1O (centres unmarked) [Compound 356] was run?
Answer: 25 to 74%
